Results reported in the supplement of paper PMC11061612.

Assays:
Experiment in all cases: combination Emax (second highest fraction inhibited in the dose matrix, 72 h); higher = more inhibition; extreme values may be limits of the assay
[1] = tested on: ST486 (Burkitt's Lymphoma)
Outline: (§1)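 Bliss excess equals the observed combination effect minus the expected value EA + EB − EA·EB, where EA and EB are the effects of each agent alone. Combination Emax is the second-highest inhibition within the matrix. Inhibition was scaled from CellTiter-Glo 2.0 luminescence, with 0 set by vehicle wells and 1 by blank wells, after 72 hours of two-drug dosing of cells plated in 1536-well plates.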

SJSA-1 (Osteosarcoma) = tested on: SJSA-1 (Osteosarcoma)
Outline: as §1

[2] = tested on: COR-L279 (Small Cell Lung Carcinoma)
Outline: as §1

[3] = tested on: T-T (Esophageal Squamous Cell Carcinoma)
Outline: as §1

[4] = tested on: MN-60 (B-Lymphoblastic Leukemia)
Outline: as §1

[5] = tested on: 8505C (Thyroid Gland Carcinoma)
Outline: as §1

G-361 (Melanoma) = tested on: G-361 (Melanoma)
Outline: as §1

[6] = tested on: MOLM-13 (Acute Myeloid Leukemia)
Outline: as §1

[7] = tested on: VMRC-RCZ (Kidney Carcinoma)
Outline: as §1

[8] = tested on: IM-95 (Gastric Carcinoma)
Outline: as §1

M059J (Glioblastoma) = tested on: M059J (Glioblastoma)
Outline: as §1

[9] = tested on: NCI-H526 (Small Cell Lung Carcinoma)
Outline: as §1

[10] = tested on: NCI-H929 (Plasma Cell Myeloma)
Outline: as §1

[11] = tested on: CHSA8926 (Chondrosarcoma)
Outline: as §1

[12] = tested on: SK-GT-2 (Gastric Carcinoma)
Outline: as §1

[13] = tested on: PC-3 (Prostate Carcinoma)
Outline: as §1

NCI-H2731 (Mesothelioma) = tested on: NCI-H2731 (Mesothelioma)
Outline: as §1

[14] = tested on: DMS-114 (Small Cell Lung Carcinoma)
Outline: as §1

[15] = tested on: NCI-H520 (Squamous Cell Lung Carcinoma)
Outline: as §1

[16] = tested on: HCC1187 (Breast Carcinoma)
Outline: as §1

Row | Structure (SMILES) | combination Emax [1] | combination Emax (SJSA-1 (Osteosarcoma)) | combination Emax [2] | combination Emax [3] | combination Emax [4] | combination Emax [5] | combination Emax (G-361 (Melanoma)) | combination Emax [6] | combination Emax [7] | combination Emax [8] | combination Emax (M059J (Glioblastoma)) | combination Emax [9] | combination Emax [10] | combination Emax [11] | combination Emax [12] | combination Emax [13] | combination Emax (NCI-H2731 (Mesothelioma)) | combination Emax [14] | combination Emax [15] | combination Emax [16]
1 | Cn1cnc2c(F)c(Nc3ccc(Br)cc3Cl)c(C(=O)NOCCO)cc21 [Selumetinib] + CCN(CCO)CCCOc1ccc2c(Nc3cc(CC(=O)Nc4cccc(F)c4)[nH]n3)ncnc2c1 [AZD2811] (first compound max 10 µM, 7x7, partner max 1 µM) | 0.852 | 0.384 | 0.765 | 0.269 | 0.342 | 0.388 | 0.798 | 0.999 | 0.152 | 0.519 | 0.237 | 0.32 | 0.698 | 0.139 | 0.173 | 0.141 | 0.201 | 0.281 | 0.17 | 0.94
2 | Cc1c2c(nn1C)CSCc1cc(n(C)n1)CSc1cc(c3ccccc3c1)OCCCc1c(C(=O)O)n(C)c3c-2c(Cl)ccc13 [AZD5991] + CCN(CCO)CCCOc1ccc2c(Nc3cc(CC(=O)Nc4cccc(F)c4)[nH]n3)ncnc2c1 [AZD2811] (first compound max 1 µM, 7x7, partner max 1 µM) | 0.976 | 0.292 | 0.787 | 0.95 | 0.206 | 0.866 | 0.964 | 1 | 0.221 | 0.875 | 0.523 | 0.8 | 1 | 0.652 | 0.204 | 0.305 | 0.273 | 0.587 | 0.599 | 1
3 | CC1(C)CCC(CN2CCN(c3ccc(C(=O)NS(=O)(=O)c4ccc(NCC5CCOCC5)c([N+](=O)[O-])c4)c(Oc4cnc5[nH]ccc5c4)c3)CC2)=C(c2ccc(Cl)cc2)C1 [Venetoclax] + C[C@@H]1COCCN1C2=NC(=NC(=C2)C3(CC3)[S@](=N)(=O)C)C4=C5C=CNC5=NC=C4 [AZD6738] (first compound max 1 µM, 7x7, partner max 10 µM) | 0.861 | 0.478 | 0.833 | 0.485 | 0.456 | 0.482 | 0.599 | 1 | 0.434 | 0.169 | 0.526 | 0.889 | 0.78 | 0.469 | 0.331 | 0.517 | 0.307 | 0.564 | 0.654 | 0.501
4 | Cn1cnc2c(F)c(Nc3ccc(Br)cc3Cl)c(C(=O)NOCCO)cc21 [Selumetinib] + C[C@@H]1COCCN1C2=NC(=NC(=C2)C3(CC3)[S@](=N)(=O)C)C4=C5C=CNC5=NC=C4 [AZD6738] (first compound max 10 µM, 7x7, partner max 10 µM) | 0.877 | 0.559 | 0.626 | 0.292 | 0.56 | 0.515 | 0.848 | 1 | 0.217 | 0.304 | 0.291 | 0.427 | 0.882 | 0.404 | 0.186 | 0.39 | 0.173 | 0.34 | 0.406 | 0.636
5 | CN(C)CCCOc1ccc(-c2ccc3ncc4c(c3c2)n(C2CCOCC2)c(=O)n4C)cn1 [AZD0156] + CCN(CCO)CCCOc1ccc2c(Nc3cc(CC(=O)Nc4cccc(F)c4)[nH]n3)ncnc2c1 [AZD2811] (first compound max 1 µM, 7x7, partner max 1 µM) | 0.913 | 0.123 | 0.776 | 0.0991 | 0.207 | 0.102 | 0.256 | 0.983 | 0.078 | 0.438 | 0.338 | 0.373 | 0.815 | 0.214 | 0.0747 | 0.16 | 0.144 | 0.232 | 0.458 | 0.844
6 | COc1nnc2ccc(N3CCC(c4ccc(OCCN5CCN(C)C(=O)[C@H]5C)cc4)CC3)nn12 [AZD5153] + CC1(C)CCC(CN2CCN(c3ccc(C(=O)NS(=O)(=O)c4ccc(NCC5CCOCC5)c([N+](=O)[O-])c4)c(Oc4cnc5[nH]ccc5c4)c3)CC2)=C(c2ccc(Cl)cc2)C1 [Venetoclax] (first compound max 1 µM, 7x7, partner max 1 µM) | 0.929 | 0.546 | 0.663 | 0.55 | 0.692 | 0.419 | 0.617 | 1 | 0.258 | 0.333 | 0.756 | 0.973 | 0.951 | 0.509 | 0.256 | 0.366 | 0.432 | 0.607 | 0.569 | 0.24
7 | COc1cc2ncnc(Nc3ccc(F)c(Cl)c3)c2cc1OCCCN1CCOCC1 [Gefitinib] + CC(C)n1c(=O)n(C)c2cnc3cc(F)c(-c4ccc(OCCCN5CCCCC5)nc4)cc3c21 [AZD1390] (first compound max 10 µM, 7x7, partner max 0.3 µM) | 0.35 | 0.0992 | 0.395 | 0.411 | 0.0314 | 0.0956 | 0.812 | 0.776 | 0.11 | 0.171 | 0.178 | 0.12 | 0.187 | 0.194 | 0.768 | 0.0447 | 0.0304 | 0.255 | 0.15 | 0.108
8 | Cc1c2c(nn1C)CSCc1cc(n(C)n1)CSc1cc(c3ccccc3c1)OCCCc1c(C(=O)O)n(C)c3c-2c(Cl)ccc13 [AZD5991] + C[C@@H](Nc1cc(F)cc(F)c1)c1cc(C(=O)N(C)C)cc2c(=O)cc(N3CCOCC3)oc12 [AZD8186] (first compound max 1 µM, 7x7, partner max 3 µM) | 0.829 | 0.34 | 0.624 | 0.915 | 0.343 | 0.2 | 0.942 | 1 | 0.287 | 0.817 | 0.421 | 0.482 | 1 | 0.797 | 0.179 | 0.449 | 0.151 | 0.61 | 0.644 | 0.993
9 | CC(=O)c1c(C)c2cnc(Nc3ccc(N4CCNCC4)cn3)nc2n(C2CCCC2)c1=O [Palbociclib] + Cc1c2c(nn1C)CSCc1cc(n(C)n1)CSc1cc(c3ccccc3c1)OCCCc1c(C(=O)O)n(C)c3c-2c(Cl)ccc13 [AZD5991] (first compound max 10 µM, 7x7, partner max 1 µM) | 0.832 | 0.351 | 0.627 | 0.799 | 0.443 | 0.245 | 0.743 | 1 | 0.194 | 0.33 | 0.191 | 0.391 | 1 | 0.289 | 0.168 | 0.169 | 0.214 | 0.49 | 0.638 | 1
10 | CC(=O)c1c(C)c2cnc(Nc3ccc(N4CCNCC4)cn3)nc2n(C2CCCC2)c1=O [Palbociclib] + Cn1cnc2c(F)c(Nc3ccc(Br)cc3Cl)c(C(=O)NOCCO)cc21 [Selumetinib] (first compound max 10 µM, 7x7, partner max 10 µM) | 0.79 | 0.424 | 0.37 | 0.46 | 0.402 | 0.364 | 0.721 | 0.982 | 0.115 | 0.315 | 0.179 | 0.0977 | 0.79 | 0.178 | 0.165 | 0.145 | 0.191 | 0.264 | 0.679 | 0.129
11 | COc1cccc2c1C(=O)c1c(O)c3c(c(O)c1C2=O)C[C@@](O)(C(=O)CO)C[C@@H]3O[C@H]1C[C@H](N)[C@H](O)[C@H](C)O1 [Doxorubicin] + Cc1cc2ncnn2cc1Nc1ncc2c(n1)n(C1CCOCC1)c(=O)n2C [AZD7648] (first compound max 1 µM, 7x7, partner max 10 µM) | 0.955 | 0.864 | 1 | 0.624 | 0.833 | 0.846 | 0.926 | 1 | 0.317 | 0.7 | 0.829 | 0.988 | 0.994 | 0.701 | 0.406 | 0.431 | 0.715 | 0.551 | 0.771 | 0.724
12 | CC1(C)CCC(CN2CCN(c3ccc(C(=O)NS(=O)(=O)c4ccc(NCC5CCOCC5)c([N+](=O)[O-])c4)c(Oc4cnc5[nH]ccc5c4)c3)CC2)=C(c2ccc(Cl)cc2)C1 [Venetoclax] + C1CN(CCC1(C(=O)N[C@@H](CCO)C2=CC=C(C=C2)Cl)N)C3=NC=NC4=C3C=CN4 [Capivasertib] (first compound max 1 µM, 7x7, partner max 3 µM) | 0.759 | 0.31 | 0.418 | 0.221 | 0.293 | 0.139 | 0.159 | 1 | 0.206 | 0.398 | 0.396 | 0.769 | 0.997 | 0.331 | 0.162 | 0.365 | 0.27 | 0.24 | 0.609 | 0.183
13 | Cc1cc2ncnn2cc1Nc1ncc2c(n1)n(C1CCOCC1)c(=O)n2C [AZD7648] + C=CCn1c(=O)c2cnc(Nc3ccc(N4CCN(C)CC4)cc3)nc2n1-c1cccc(C(C)(C)O)n1 [AZD1775] (first compound max 10 µM, partner max 1 µM) | 0.98 | 0.486 | 0.484 | 0.461 | 0.124 | 0.175 | 0.545 | 1 | 0.393 | 0.501 | 0.522 | 0.721 | 0.827 | 0.592 | 0.74 | 0.263 | 0.416 | 0.385 | 0.81 | 0.304
